US20040127403A1, “Methods for treating and preventing Gram-positive bacteremias” (priority 2002, published 2004)
Where two headings read alike, the source gives them in different places.

Columns and labels:
Test in all cases: MIC, NCCLS broth microdilution
Type in all cases: cell-based
[1] = system: S. aureus ATCC43300 MRSA; settings: Staphylococcus aureus, ATCC 43300 / MRSA / VISA, S. aureus ATCC43300 MRSA/VISA, read-out: MIC
Procedure, shortened: (§1)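 Each MIC was measured in two broths, CAMHB and TSB, using the NCCLS microdilution procedure; 0.02% bovine serum albumin was added with ramoplanin.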

[2] = system: E. faecium A-5960 Line-R; settings: Enterococcus faecium, A5960LINER
Procedure, shortened: as §1

[3] = system: S. aureus ATCC19636 MSSA; settings: Staphylococcus aureus, read-out: MIC
Procedure, shortened: as §1

[4] = system: E. faecium A5959 Line-R; settings: Enterococcus faecium, A5959LINER
Procedure, shortened: as §1

[5] = system: S. aureus ATCC27660 MSSA; settings: Staphylococcus aureus, read-out: MIC
Procedure, shortened: as §1

[6] = system: S. aureus ATCC12600 MRSA; settings: Staphylococcus aureus, read-out: MIC
Procedure, shortened: as §1

[7] = system: E. faecium A6350 Line-R; settings: Enterococcus faecium, A6350LINER, read-out: MIC
Procedure, shortened: as §1

[8] = system: S. aureus ATCC700699 MRSA/VISA; settings: Staphylococcus aureus, S. aureus ATCC700699 MRSA/VISA, read-out: MIC
Procedure, shortened: as §1

[9] = system: E. faecalis ATCC51299; settings: Enterococcus faecalis, ATCC51299, E. faecalis ATCC51299, read-out: MIC
Procedure, shortened: as §1

[10] = system: S. epidermidis ATCC12228; settings: Staphylococcus epidermidis, ATCC12228, S. epidermidis ATCC12228, read-out: MIC
Procedure, shortened: as §1

[11] = system: E. faecium 1836; settings: Enterococcus faecium, 1836, E. faecium 1836, read-out: MIC
Procedure, shortened: as §1

[12] = system: S. epidermidis ATCC14990; settings: Staphylococcus epidermidis, ATCC14990, S. epidermidis ATCC14990, read-out: MIC
Procedure, shortened: as §1

[13] = system: E. gallinarum UA604; settings: Enterococcus gallinarum, GALLINARUM, read-out: MIC
Procedure, shortened: as §1

[14] = system: S. aureus ATCC27659 MSSA; settings: Staphylococcus aureus, read-out: MIC
Procedure, shortened: as §1

[15] = system: E. faecium A2735 Syn-R; settings: Enterococcus faecium, A2735SYNR, read-out: MIC
Procedure, shortened: as §1

[16] = system: E. faecium A6349 Line-R; settings: Enterococcus faecium, A6349LINER, read-out: MIC
Procedure, shortened: as §1

[17] = system: E. faecium ATCC700221; settings: Enterococcus faecium, ATCC700221, E. faecium ATCC700221, read-out: MIC
Procedure, shortened: as §1

[18] = system: E. faecium A6345 Line-R; settings: for MIC: Enterococcus faecium, A6345LINER, E. faecium A6345 Line-R, read-out: MIC
Procedure, shortened: as §1

[19] = system: E. faecalis A7789 Line-R; settings: Enterococcus faecalis, A7789LINER
Procedure, shortened: as §1

[20] = system: E. faecium A4192 Syn-R; settings: Enterococcus faecium, A4192SYNR, read-out: MIC
Procedure, shortened: as §1

[21] = system: E. faecalis ATCC29212; settings: Enterococcus faecalis, ATCC29212, E. faecalis ATCC29212, read-out: MIC
Procedure, shortened: as §1

[22] = system: E. faecium A6343 Line-R; settings: Enterococcus faecium, A6343LINER, read-out: MIC
Procedure, shortened: as §1

[23] = system: E. faecium UA392; settings: Enterococcus faecium, UA392, E. faecium UA392, read-out: MIC
Procedure, shortened: as §1

CC(=O)NC[C@H]1CN(c2ccc(N3CCOCC3)c(F)c2)C(=O)O1 [Linezolid]
2 µg/mL: MIC ([1]; Table 6, 2nd) | MIC ([3]; Table 6, 2nd) | MIC ([5]; Table 6, 2nd) | MIC ([6]; Table 6, 2nd) | MIC ([7]; Table 6, 2nd) | MIC ([8]; Table 6, 2nd) | MIC ([9]; Table 6, 1st) | MIC ([9]; Table 6, 2nd) | MIC ([10]; Table 6, 1st) | MIC ([10]; Table 6, 2nd) | MIC ([11]; Table 6, 2nd) | MIC ([12]; Table 6, 2nd) | MIC ([13]; Table 6, 2nd) | MIC ([14]; Table 6, 2nd) | MIC ([15]; Table 6, 2nd) | MIC ([17]; Table 6, 2nd) | MIC ([20]; Table 6, 2nd) | MIC ([21]; Table 6, 2nd) | MIC ([23]; Table 6, 2nd)
16 µg/mL: MIC ([4]; Table 6, 2nd) | MIC ([16]; Table 6, 1st) | MIC ([16]; Table 6, 2nd) | reference MIC for strains used for killing curve ([18]; E. faecium A6345 Line-R. as printed, second row of Table 3)
> 16 µg/mL: MIC ([2]; Table 6, 1st) | MIC ([4]; Table 6, 1st) | MIC ([18]; Table 6, 1st) | MIC ([19]; Table 6, 1st)
32 µg/mL: MIC ([2]; Table 6, 2nd) | MIC ([18]; Table 6, 2nd) | MIC ([19]; Table 6, 2nd)
8 µg/mL: MIC ([22]; Table 6, 1st) | MIC ([22]; Table 6, 2nd)
16 to 32 µg/mL: reference MIC for strains used for killing curve ([18]; E. faecium A6345 Line-R., first row of Table 3)
4 µg/mL: MIC ([1]; Table 6, 1st) | MIC ([3]; Table 6, 1st) | MIC ([5]; Table 6, 1st) | MIC ([6]; Table 6, 1st) | MIC ([7]; Table 6, 1st) | MIC ([8]; Table 6, 1st) | MIC ([11]; Table 6, 1st) | MIC ([12]; Table 6, 1st) | MIC ([13]; Table 6, 1st) | MIC ([14]; Table 6, 1st) | MIC ([15]; Table 6, 1st) | MIC ([17]; Table 6, 1st) | MIC ([20]; Table 6, 1st) | MIC ([21]; Table 6, 1st) | MIC ([23]; Table 6, 1st)
